In patent US4764618A, “Arginine derivatives and pharmaceutically acceptable acid addition salts thereof” (Mitsubishi Chemical Industries Limited, priority 1984, dated 1988):

molecular target: T1, trypsin (Bos taurus, UniProt P00760); experiment: Determination of Trypsin-Inhibiting Activity (chromogenic substrate S-2222); type: biochemical; conditions: inhibitor concentration giving 50% of ΔA/min (405 nm) without inhibitor; 33.3 μM S-2222, 0.1 M Tris-HCl pH 8.3, 37° C.; read-out: I50
T1 sequence (P00760 24-246): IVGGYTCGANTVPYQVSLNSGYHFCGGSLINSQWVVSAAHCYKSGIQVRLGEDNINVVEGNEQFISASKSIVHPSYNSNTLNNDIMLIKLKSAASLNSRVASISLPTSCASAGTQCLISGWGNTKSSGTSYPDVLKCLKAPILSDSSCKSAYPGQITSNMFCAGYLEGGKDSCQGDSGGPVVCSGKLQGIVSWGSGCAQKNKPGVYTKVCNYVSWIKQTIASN
Procedure: Trypsin-inhibiting activity of the arginine derivatives of this invention was determined by the method described below.
Determination of Trypsin-Inhibiting Activity
Trypsin activity is determined by measuring the rate of formation of para-nitroaniline from synthesized chromogenic substrate Jz-Ile-Glu(γ-OH and γ-OCH3)-Gly-Arg-pNA (S-2222)(benzoylisoleucylglutamyl(γ-OH:γ-OCH3 =1:1)glycylarginine p-nitroanilide) supplied by Kabi Diagnostica Inc. Three (3) ml of a reaction mixture containing 33.3 μM of S-2222 and 0.1 M Tris-HCl buffer solution (pH 8.3) is placed in a cell for spectrophotometry and the cell is placed in the thermostatic cell holder at 37° C. of a Hitachi 124 spectrophotometer. After the cell is kept at 37° C. for 3 minutes, 10 μl of a solution of trypsin dissolved in 0.001N HCl containing 0.05M CaCl2 is added, and increase in absorbance at 405 nm is continuously measured using a recorder to calculate ΔA/min at an initial portion. Various inhibitors in various concentrations are added and ΔA/min values are respectively measured. Data are plotted with the inhibitor concentration as abscissa and ΔA/min as ordinate. From the resulting graph the inhibitor concentrations which give ΔA/min corresponding to 50% of the ΔA/min value when no inhibitor is added are sought as I50.

| SMILES | IC50 [nM] |
| --- | --- |
| COc1cc2ccc(S(=O)(=O)N[C@@H](CCCNC(=N)N)C(=O)N3CCC(c4ccccc4)CC3)cc2cc1OC [Run No. 3] | 2400 |
| COc1cc2ccc(S(=O)(=O)N[C@@H](CCCNC(=N)N)C(=O)N3CCC(Cc4ccccc4)CC3)cc2cc1OC [Run No. 4] | 3500 |
| Cc1ccc(S(=O)(=O)N[C@@H](CCCNC(=N)N)C(=O)N2CCC(c3ccccc3)CC2)cc1 [Run No. 5] | 22000 |
| CCOC(=O)C1(c2ccccc2)CCN(C(=O)[C@H](CCCNC(=N)N)NS(=O)(=O)c2ccc3ccc(OC)cc3c2)CC1 [Run No. 54] | 12000 |
| CC1CNc2c(cccc2S(=O)(=O)N[C@@H](CCCNC(=N)N)C(=O)N2CCN(c3ccccc3)CC2)C1 (stereo partly shown) [compound 6] | 10000 |
| Cc1ccc(S(=O)(=O)N[C@@H](CCCNC(=N)N)C(=O)N2CCN(c3ccccc3)CC2)cc1 [compound 8] | 74000 |
| COc1cc2ccc(S(=O)(=O)N[C@@H](CCCNC(=N)N)C(=O)N3CCN(c4ccccc4)CC3)cc2cc1OC [compound 9] | 7800 |
| N=C(N)NCCC[C@H](NS(=O)(=O)c1ccc2c(c1)Cc1ccccc1-2)C(=O)N1CCC(c2ccccc2)CC1 [compound 11] | 3200 |
| COc1ccc2cc(S(=O)(=O)N[C@@H](CCCNC(=N)N)C(=O)N3CCC(c4ccccc4)CC3)cc(OC)c2c1 [compound 13] | 2250 |
| N=C(N)NCCC[C@H](NC(=O)c1cccc2ccccc12)C(=O)N1CCC(c2ccccc2)CC1 [compound 14] | 395000 |
| N=C(N)NCCC[C@H](NS(=O)(=O)c1ccc2cc3c(cc2c1)OCCO3)C(=O)N1CCC(c2ccccc2)CC1 [compound 15] | 6000 |
| CCOc1c(OC)ccc(S(=O)(=O)N[C@@H](CCCNC(=N)N)C(=O)N2CCC(c3ccccc3)CC2)c1OC [compound 19] | 2400 |
| COc1ccc2ccc(S(=O)(=O)N[C@@H](CCCNC(=N)N)C(=O)N3CCC(C(C)=O)(c4ccccc4)CC3)cc2c1 [compound 27] | 35000 |
| COc1ccc(N2CCN(C(=O)[C@H](CCCNC(=N)N)NS(=O)(=O)c3ccc4ccc(OC)cc4c3)CC2)cc1 [compound 28] | 2800 |
| COc1ccc2cc(S(=O)(=O)N[C@@H](CCCNC(=N)N)C(=O)N3CCC(c4ccccc4)CC3)ccc2c1 [compound 31] | 41200 |
| Cc1cc2ccc(S(=O)(=O)N[C@@H](CCCNC(=N)N)C(=O)N3CCC(c4ccccc4)CC3)cc2cc1C [compound 32] | 9000 |
| COc1ccc2ccc(S(=O)(=O)N[C@@H](CCCNC(=N)N)C(=O)N3CCC(C(=O)Nc4ccccc4)CC3)cc2c1 [compound 33] | 3400 |
| N=C(N)NCCC[C@H](NS(=O)(=O)c1cccc2c1CCCC2)C(=O)N1CCC(c2ccccc2)CC1 [compound 34] | 7700 |
| N=C(N)NCCC[C@H](NS(=O)(=O)c1ccc2c(c1)CCCC2)C(=O)N1CCC(c2ccccc2)CC1 [compound 35] | 6700 |
| COc1cccc2cccc(S(=O)(=O)N[C@@H](CCCNC(=N)N)C(=O)N3CCC(c4ccccc4)CC3)c12 [compound 36] | 87000 |
| N=C(N)NCCC[C@H](NS(=O)(=O)c1cccc2ccccc12)C(=O)N1CCC(c2ccccc2)CC1 [compound 37] | 11000 |
| N=C(N)NCCC[C@H](NS(=O)(=O)c1ccc2ccccc2c1)C(=O)N1CCC(c2ccccc2)CC1 [compound 38] | 3200 |
| N=C(N)NCCC[C@H](NS(=O)(=O)c1ccc2ccc(O)cc2c1)C(=O)N1CCC(c2ccccc2)CC1 [compound 42] | 37000 |
| COc1ccc2ccc(S(=O)(=O)N[C@@H](CCCNC(=N)N)C(=O)N3CCC(Oc4ccccc4)CC3)cc2c1 [compound 43] | 25000 |
| N=C(N)NCCC[C@H](NC(=O)c1ccc2ccccc2c1)C(=O)N1CCC(c2ccccc2)CC1 [compound 44] | 110000 |
| N=C(N)NCCC[C@H](NS(=O)(=O)c1cccc2c(Cl)cccc12)C(=O)N1CCC(c2ccccc2)CC1 [compound 47] | 2500 |
| COc1cc2c(S(=O)(=O)N[C@@H](CCCNC(=N)N)C(=O)N3CCC(c4ccccc4)CC3)cccc2cc1C(=O)O [compound 50] | 450000 |

Further compounds by falling IC50, results first:

| IC50 [nM] | SMILES |
| --- | --- |
| 2200 | N=C(N)NCCC[C@H](NS(=O)(=O)c1ccc2oc3ccccc3c2c1)C(=O)N1CCC(c2ccccc2)CC1 [compound 10] |
| 2200 | COc1ccc(S(=O)(=O)N[C@@H](CCCNC(=N)N)C(=O)N2CCC(c3ccccc3)CC2)c2ccccc12 [compound 29] |
| 2100 | CC1CNc2c(cccc2S(=O)(=O)N[C@@H](CCCNC(=N)N)C(=O)N2CCC(c3ccccc3)CC2)C1 (stereo partly shown) [Run No. 1] |
| 2100 | CCOC(=O)c1cc2cccc(S(=O)(=O)N[C@@H](CCCNC(=N)N)C(=O)N3CCC(c4ccccc4)CC3)c2cc1OC [Run No. 49] |
| 1900 | COc1ccc2ccc(S(=O)(=O)N[C@@H](CCCNC(=N)N)C(=O)N3CC[C@H](c4ccccc4)C[C@H]3C(=O)O)cc2c1 [compound 57] |
| 1600 | COc1ccc2ccc(S(=O)(=O)N[C@@H](CCCNC(=N)N)C(=O)N3CCN(c4cccc(C(F)(F)F)c4)CC3)cc2c1 [compound 46] |
| 1500 | COc1ccc2ccc(S(=O)(=O)N[C@@H](CCCNC(=N)N)C(=O)N3CCN(c4ccccc4)CC3)cc2c1 [compound 7] |
| 1300 | COc1ccc2ccc(S(=O)(=O)N[C@@H](CCCNC(=N)N)C(=O)N3CCC(C#N)(c4ccccc4)CC3)cc2c1 [compound 30] |
| 1100 | N=C(N)NCCC[C@H](NS(=O)(=O)c1ccc2ccc(Cl)cc2c1)C(=O)N1CCC(c2ccccc2)CC1 [compound 48] |
| 1000 | Cc1ccc2ccc(S(=O)(=O)N[C@@H](CCCNC(=N)N)C(=O)N3CCC(c4ccccc4)CC3)cc2c1 [compound 12] |
| 1000 | COc1ccc2ccc(S(=O)(=O)N[C@@H](CCCNC(=N)N)C(=O)N3CCN(c4cc(Cl)cc(Cl)c4)CC3)cc2c1 [compound 45] |
| 900 | CCOc1ccc2ccc(S(=O)(=O)N[C@@H](CCCNC(=N)N)C(=O)N3CCC(c4ccccc4)CC3)cc2c1 [compound 21] |
| 860 | COc1ccc2ccc(S(=O)(=O)N[C@@H](CCCNC(=N)N)C(=O)N3CCN(c4ccc(F)cc4)CC3)cc2c1 [compound 26] |
| 800 | COc1ccc2ccc(S(=O)(=O)N[C@@H](CCCNC(=N)N)C(=O)N3CCN(c4ccccc4OC)CC3)cc2c1 [compound 20] |
| 800 | COc1ccc2ccc(S(=O)(=O)N[C@@H](CCCNC(=N)N)C(=O)N3CCN(c4ccccc4O)CC3)cc2c1 [compound 55] |
| 750 | COc1cccc(C2CCN(C(=O)[C@H](CCCNC(=N)N)NS(=O)(=O)c3ccc4ccc(OC)cc4c3)CC2)c1 [compound 58] |

| IC50 [nM] | SMILES |
| --- | --- |
| 690 | COc1ccc2ccc(S(=O)(=O)N[C@@H](CCCNC(=N)N)C(=O)N3CCN(c4ccc(Cl)cc4)CC3)cc2c1 [compound 16] |
| 650 | CCOC(=O)C1CC(c2ccccc2)CCN1C(=O)[C@H](CCCNC(=N)N)NS(=O)(=O)c1ccc2ccc(OC)cc2c1 (stereo partly shown) [Run No. 23] |
| 600 | COc1ccc2ccc(S(=O)(=O)N[C@@H](CCCNC(=N)N)C(=O)N3CCC(Cc4ccccc4)CC3)cc2c1 [compound 25] |
| 460 | COc1ccc2ccc(S(=O)(=O)N[C@@H](CCCNC(=N)N)C(=O)N3CCC(c4ccc(Cl)cc4)CC3)cc2c1 [compound 41] |
| 400 | COc1ccc2ccc(S(=O)(=O)N[C@@H](CCCNC(=N)N)C(=O)N3CCN(c4ccccc4C)CC3)cc2c1 [compound 22] |
| 400 | COc1ccc2ccc(S(=O)(=O)N[C@@H](CCCNC(=N)N)C(=O)N3CCC(c4ccccc4)CC3C(=O)O)cc2c1 (stereo partly shown) [compound 24] |
| 400 | COc1ccc2ccc(S(=O)(=O)N[C@@H](CCCNC(=N)N)C(=O)N3CCC(c4ccccc4C)CC3)cc2c1 [compound 40] |
| 380 | COc1ccc2ccc(S(=O)(=O)N[C@@H](CCCNC(=N)N)C(=O)N3CCN(c4cccc(Cl)c4)CC3)cc2c1 [compound 17] |
| 370 | COc1ccc2ccc(S(=O)(=O)N[C@@H](CCCNC(=N)N)C(=O)N3CCC(c4ccc(C)cc4)CC3)cc2c1 [compound 53] |
| 330 | COc1ccc2ccc(S(=O)(=O)N[C@@H](CCCNC(=N)N)C(=O)N3CCN(c4ccccc4Cl)CC3)cc2c1 [compound 18] |
| 300 | COc1ccc2ccc(S(=O)(=O)N[C@@H](CCCNC(=N)N)C(=O)N3CCC(c4cccc(C)c4)CC3)cc2c1 [compound 51] |
| 280 | COc1ccc2ccc(S(=O)(=O)N[C@@H](CCCNC(=N)N)C(=O)N3CCC(c4ccccc4OC)CC3)cc2c1 [compound 39] |
| 230 | COc1ccc2ccc(S(=O)(=O)N[C@@H](CCCNC(=N)N)C(=O)N3CCC(c4ccccc4)CC3)cc2c1 [Run No. 2, 1-[N^2-(7-methoxy-2-naphthalenesulfonyl)-L-arginyl]-4-phenylpiperidine] |
| 200 | COc1ccc(C2CCN(C(=O)[C@H](CCCNC(=N)N)NS(=O)(=O)c3ccc4ccc(OC)cc4c3)CC2)cc1 [compound 52] |
| 150 | COc1ccc2ccc(S(=O)(=O)N[C@@H](CCCNC(=N)N)C(=O)N3CC[C@@H](c4ccccc4)C[C@@H]3C(=O)O)cc2c1 [compound 56] |
